system: FLAP (5-lipoxygenase activating protein); test: In vitro binding test: displacement of [3H]-7-chloro-3-(5-((3-fluoropyridin-2-yl)methoxy)-2-methylphenyl)-3,4-dihydroquinazolin-2(1H)-one from Sf9 microsome fractions; set-up: species or system human and mouse; settings: Sf9 microsome fractions expressing FLAP; 100% = radioligand binding with 10 μM sodium 3-(3-(tert-butylsulfanyl)-1-(4-chlorobenzyl)-5-isopropyl-1H-indol-2-yl)-2,2-dimethylpropanoate, 0% = DMSO; test compound concentration not given
Procedure, shortened: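 Sf9 microsomes expressing human or mouse FLAP (2 μg/mL) preincubated with compound 10 min at room temperature, then 120 nM tritiated quinazolinone ligand added for 60 min; buffer 100 mM Tris-HCl pH 7.5 with NaCl, EDTA, DTT, glycerol, Tween20. Bound ligand filtered and counted by scintillation; 10 μM indole propanoate defines 100% inhibition, DMSO 0%.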

Going from `COC(=O)c1ccc2c(c1)NC(=O)N(c1cc(OCc3ncc(C)s3)ccc1C)C2` [Example 241, methyl 3-(2-methyl-5-((5-methyl-1,3-thiazol-2-yl)methoxy)phenyl)-2-oxo-1,2,3,4-tetrahydroquinazoline-7-carboxylate] to `COC(=O)c1ccc2c(c1)NC(=O)N(c1cc(OCc3nc(C)cs3)ccc1C)C2` [Example 249, methyl 3-(2-methyl-5-((4-methyl-1,3-thiazol-2-yl)methoxy)phenyl)-2-oxo-1,2,3,4-tetrahydroquinazoline-7-carboxylate], the “inhibitory rate (%)” value falls from 94% to 90%.

First: CCCc1ccc(OCc2ncccc2F)cc1N1Cc2ccccc2NC1=O [Example 245, 3-(5-((3-fluoropyridin-2-yl)methoxy)-2-propylphenyl)-3,4-dihydroquinazolin-2(1H)-one]
Second: O=C1Nc2ccccc2CN1c1cc(OCc2ncccc2F)ccc1C1CC1 [Example 213, 3-(2-cyclopropyl-5-((3-fluoropyridin-2-yl)methoxy)phenyl)-3,4-dihydroquinazolin-2(1H)-one]
The “inhibitory rate (%)” value of the first is lower: 99% for the first, 114% for the second.

First: Cc1cc2c(cc1N1Cc3c(C(F)(F)F)ncc(/C=C/C(=O)O)c3NC1=O)OC(c1ncccc1F)CC2 (stereo not drawn) [Example 92, (2E)-3-(3-(2-(3-fluoropyridin-2-yl)-6-methyl-3,4-dihydro-2H-chromen-7-yl)-2-oxo-5-(trifluoromethyl)-1,2,3,4-tetrahydropyrido[4,3-d]pyrimidine-8-yl)acrylic acid]
Second: COc1ncc(C(F)(F)F)c2c1NC(=O)N(c1cc3c(cc1Cl)CCC(c1ncccc1F)O3)C2 (stereo not drawn) [Example 108, 3-(6-chloro-2-(3-fluoropyridin-2-yl)-3,4-dihydro-2H-chromen-7-yl)-8-methoxy-5-(trifluoromethyl)-3,4-dihydropyrido[3,4-d]pyrimidin-2(1H)-one]
The “inhibitory rate (%)” value of the first is higher: 106% for the first, 104% for the second.

Compared with `Cc1ccc(OCc2ncccc2F)cc1-n1c(=O)[nH]c2ccc(Cl)cc2c1=O` [Example 355, 6-chloro-3-(5-((3-fluoropyridin-2-yl)methoxy)-2-methylphenyl)quinazoline-2,4(1H,3H)-dione], `Cc1ccc(OCc2ncccc2F)cc1-n1c(=O)[nH]c2ccccc2c1=O` [Example 337, 3-(5-((3-fluoropyridin-2-yl)methoxy)-2-methylphenyl)quinazoline-2,4(1H,3H)-dione] is higher in “inhibitory rate (%)” value: 94% for the first, 104% for the second.

Compared with `Cc1ccc(OCc2ncccc2F)cc1N1Cc2c(ccnc2C(N)=O)NC1=O` [Example 322, 3-(5-((3-fluoropyridin-2-yl)methoxy)-2-methylphenyl)-2-oxo-1,2,3,4-tetrahydropyrido[4,3-d]pyrimidine-5-carboxamide], `Cc1ccc(OCc2ncccc2F)cc1N1Cc2c(ccnc2C)NC1=O` [Example 323, 3-(5-((3-fluoropyridin-2-yl)methoxy)-2-methylphenyl)-5-methyl-3,4-dihydropyrido[4,3-d]pyrimidin-2(1H)-one] is lower in “inhibitory rate (%)” value: 97% for the first, 94% for the second.

Going from `COC(=O)c1ccc2c(c1)NC(=O)N(c1cc(OCc3ncccc3F)ccc1C)C2` [Example 216, methyl 3-(5-((3-fluoropyridin-2-yl)methoxy)-2-methylphenyl)-2-oxo-1,2,3,4-tetrahydroquinazoline-7-carboxylate] to `Cc1ccc(OCc2ncccc2F)cc1N1Cc2c(Cl)cc(C(=O)O)cc2NC1=O` [Example 292, 5-chloro-3-(5-((3-fluoropyridin-2-yl)methoxy)-2-methylphenyl)-2-oxo-1,2,3,4-tetrahydroquinazoline-7-carboxylic acid], the “inhibitory rate (%)” value rises from 104% to 107%.

First: Cc1ccc(OCc2c(F)cccc2F)cc1N1Cc2ccc(C3=NC(C)(C)C(=O)O3)cc2NC1=O [Example 210, 3-(5-((2,6-difluorobenzyl)oxy)-2-methylphenyl)-7-(4,4-dimethyl-5-oxo-4,5-dihydro-1,3-oxazol-2-yl)-3,4-dihydroquinazolin-2(1H)-one]
Second: Cc1ccc(OCc2c(F)cccc2F)cc1N1Cc2ccc(C(C)(C)O)cc2NC1=O [Example 180, 3-(5-((2,6-difluorobenzyl)oxy)-2-methylphenyl)-7-(2-hydroxypropan-2-yl)-3,4-dihydroquinazolin-2(1H)-one]
The “inhibitory rate (%)” value of the first is higher: 96% for the first, 81% for the second.

First: COc1nccc2c1CN(c1cc3c(cc1C)CCC(c1ncccc1F)O3)C(=O)N2 (stereo not drawn) [Example 21, 3-(2-(3-fluoropyridin-2-yl)-6-methyl-3,4-dihydro-2H-chromen-7-yl)-5-methoxy-3,4-dihydropyrido[4,3-d]pyrimidin-2 (1H)-one]
Second: Cc1cc2c(cc1N1Cc3c(ccnc3C(=O)NC3CC3)NC1=O)OC(c1ncccc1F)CC2 (stereo not drawn) [Example 32, N-cyclopropyl-3-(2-(3-fluoropyridin-2-yl)-6-methyl-3,4-dihydro-2H-chromen-7-yl)-2-oxo-1,2,3,4-tetrahydropyrido[4,3-d]pyrimidine-5-carboxamide]
The “inhibitory rate (%)” value of the first is higher: 103% for the first, 101% for the second.

Compared with `O=C(NC1CC1)c1ccc(OCc2ncccc2F)cc1N1Cc2ccccc2NC1=O` [Example 221, N-cyclopropyl-4-((3-fluoropyridin-2-yl)methoxy)-2-(2-oxo-1,4-dihydroquinazolin-3(2H)-yl)benzamide], `O=C1Nc2ccccc2CN1c1cc(OCc2ncccc2F)ccc1CN1CCOCC1` [Example 313, 3-(5-((3-fluoropyridin-2-yl)methoxy)-2-(morpholin-4-ylmethyl)phenyl)-3,4-dihydroquinazolin-2(1H)-one] is lower in “inhibitory rate (%)” value: 72% for the first, 64% for the second.

First: CC(C)(O)c1nccc2c1CN(c1cc3c(cc1Cl)CCC(c1ncccc1F)O3)C(=O)N2 (stereo not drawn) [Example 84, 3-(6-chloro-2-(3-fluoropyridin-2-yl)-3,4-dihydro-2H-chromen-7-yl)-5-(2-hydroxypropan-2-yl)-3,4-dihydropyrido[4,3-d]pyrimidin-2(1H)-one]
Second: COc1ncc(Cl)c2c1NC(=O)N(c1cc3c(cc1Cl)CCC(c1ncccc1F)O3)C2 (stereo not drawn) [Example 80, 5-chloro-3-(6-chloro-2-(3-fluoropyridin-2-yl)-3,4-dihydro-2H-chromen-7-yl)-8-methoxy-3,4-dihydropyrido[3,4-d]pyrimidin-2(1H)-one]
The “inhibitory rate (%)” value of the first is lower: 106% for the first, 107% for the second.

Compared with `Cc1cc2c(cc1N1Cc3c(Cl)cnc(-c4c(C)nn(C)c4C)c3NC1=O)OC(c1ncccc1F)CC2` (single isomer, unassigned; (-)) [Example 15, (−)-5-chloro-3-(2-(3-fluoropyridin-2-yl)-6-methyl-3,4-dihydro-2H-chromen-7-yl)-8-(1,3,5-trimethyl-1H-pyrazol-4-yl)-3,4-dihydropyrido[3,4-d]pyrimidin-2(1H)-one], `Cc1cc2c(cc1N1Cc3c(cc(-n4cncn4)nc3C3CC3)NC1=O)OC(c1ncccc1F)CC2` (stereo not drawn) [Example 140, 5-cyclopropyl-3-(2-(3-fluoropyridin-2-yl)-6-methyl-3,4-dihydro-2H-chromen-7-yl)-7-(1H-1,2,4-triazol-1-yl)-3,4-dihydropyrido[4,3-d]pyrimidin-2(1H)-one] is lower in “inhibitory rate (%)” value: 102% for the first, 99% for the second.

Compared with `O=c1[nH]c2cn(CC3CC3)nc2c(=O)n1-c1cc(OCc2ncccc2F)ccc1Br` [Example 358, 6-(2-bromo-5-((3-fluoropyridin-2-yl)methoxy)phenyl)-2-(cyclopropylmethyl)-2H-pyrazolo[4,3-d]pyrimidine-5,7(4H,6H)-dione], `Cc1ccc(OCc2ncccc2F)cc1-n1c(=O)[nH]c2cnccc2c1=O` [Example 339, 3-(5-((3-fluoropyridin-2-yl)methoxy)-2-methylphenyl)pyrido[3,4-d]pyrimidine-2,4(1H,3H)-dione] is higher in “inhibitory rate (%)” value: 101% for the first, 106% for the second.

Compared with `COC(=O)c1ccc(OCc2c(F)cccc2F)cc1N1Cc2ccccc2NC1=O` [Example 188, methyl 4-((2,6-difluorobenzyl)oxy)-2-(2-oxo-1,4-dihydroquinazolin-3(2H)-yl)benzoate], `CC(C)(O)c1ccc2c(c1)NC(=O)N(c1cc(OCc3c(F)cccc3F)ccc1CC1CCCCC1)C2` [Example 289, 3-(2-(cyclohexylmethyl)-5-((2,6-difluorobenzyl)oxy)phenyl)-7-(2-hydroxypropan-2-yl)-3,4-dihydroquinazolin-2(1H)-one] is lower in “inhibitory rate (%)” value: 83% for the first, 80% for the second.

Going from `O=c1[nH]c2ccccc2c(=O)n1-c1ccc2c(c1)OC(c1c(F)cccc1F)CC2` (stereo not drawn) [Example 326, 3-(2-(2,6-difluorophenyl)-3,4-dihydro-2H-chromen-7-yl)quinazoline-2,4(1H,3H)-dione] to `Cc1ccc(OCc2ncccc2F)cc1-n1c(=O)[nH]c2cc(NS(=O)(=O)C3CC3)ccc2c1=O` [Example 362, N-(3-(5-((3-fluoropyridin-2-yl)methoxy)-2-methylphenyl)-2,4-dioxo-1,2,3,4-tetrahydroquinazolin-7-yl)cyclopropanesulfonamide], the “inhibitory rate (%)” value rises from 95% to 110%.

Compared with `O=C1NCCN1c1cc2c(c(C3CC3)n1)CN(c1cc3c(cc1Cl)CCC(c1ncccc1F)O3)C(=O)N2` (stereo not drawn) [Example 131, 3-(6-chloro-2-(3-fluoropyridin-2-yl)-3,4-dihydro-2H-chromen-7-yl)-5-cyclopropyl-7-(2-oxoimidazolidin-1-yl)-3,4-dihydropyrido[4,3-d]pyrimidin-2(1H)-one], `O=C1Nc2cc(C3CC3)nc(C3CC3)c2CN1c1ccc2c(c1)OC(c1ncccc1F)CC2` (stereo not drawn) [Example 90, 5,7-dicyclopropyl-3-(2-(3-fluoropyridin-2-yl)-3,4-dihydro-2H-chromen-7-yl)-3,4-dihydropyrido[4,3-d]pyrimidin-2(1H)-one] is higher in “inhibitory rate (%)” value: 101% for the first, 118% for the second.
